These results are taken from patent US9493426B2, “Quinazolinone derivatives useful as FGFR kinase modulators” (priority 2013, dated 2016).

One data set has as its target T1, FGFR3 (Homo sapiens, UniProt P22607).
T1 construct: purchased DiscoveRx Corporation
Put plainly: Enzyme binding assay (KINOMEscan) FGFR3. To be noted: pKd = -log Kd (M), read-out: FGFR3_pKd (converted). The method, then: (§1) Enzyme Binding Assays (KINOMEscan®)
(§2) Kinase enzyme binding affinities of compounds disclosed herein were determined using the KINOMEscan® technology performed by DiscoveRx Corporation, San Diego, Calif., USA (www.kinomescan.com).

The next data set has as its target T2, FGFR1 (Homo sapiens, UniProt P11362).
T2 construct: purchased DiscoveRx Corporation
Nature of the data set: Enzyme binding assay (KINOMEscan) FGFR1. The settings on record: FGFR1_pKd, pKd = -log Kd (M). The method, then: as §1, §2

A further data set concerns the target T3, FGFR2 (Homo sapiens, UniProt P21802).
T3 construct: purchased DiscoveRx Corporation
Nature of the data set: Enzyme binding assay (KINOMEscan) FGFR2. The settings on record: pKd = -log Kd (M), read-out: FGFR2_pKd (converted). The method, then:
as §1, §2

The target of the next data set is T4, VEGFR2 (Homo sapiens, UniProt P35968).
T4 construct: purchased DiscoveRx Corporation
Nature of the data set: Enzyme binding assay (KINOMEscan) VEGFR2. To be noted: pKd = -log Kd (M), read-out: VEGFR2_pKd (converted). The method, then: as §1, §2

The next data set concerns the target T5, FGFR4 (Homo sapiens, UniProt P22455).
T5 construct: purchased DiscoveRx Corporation
Put plainly: Enzyme binding assay (KINOMEscan) FGFR4. The settings on record: pKd = -log Kd (M); for Kd: read-out: FGFR4_pKd (converted). The method, then:
as §1, §2

T1 sequence (P22607 23-806): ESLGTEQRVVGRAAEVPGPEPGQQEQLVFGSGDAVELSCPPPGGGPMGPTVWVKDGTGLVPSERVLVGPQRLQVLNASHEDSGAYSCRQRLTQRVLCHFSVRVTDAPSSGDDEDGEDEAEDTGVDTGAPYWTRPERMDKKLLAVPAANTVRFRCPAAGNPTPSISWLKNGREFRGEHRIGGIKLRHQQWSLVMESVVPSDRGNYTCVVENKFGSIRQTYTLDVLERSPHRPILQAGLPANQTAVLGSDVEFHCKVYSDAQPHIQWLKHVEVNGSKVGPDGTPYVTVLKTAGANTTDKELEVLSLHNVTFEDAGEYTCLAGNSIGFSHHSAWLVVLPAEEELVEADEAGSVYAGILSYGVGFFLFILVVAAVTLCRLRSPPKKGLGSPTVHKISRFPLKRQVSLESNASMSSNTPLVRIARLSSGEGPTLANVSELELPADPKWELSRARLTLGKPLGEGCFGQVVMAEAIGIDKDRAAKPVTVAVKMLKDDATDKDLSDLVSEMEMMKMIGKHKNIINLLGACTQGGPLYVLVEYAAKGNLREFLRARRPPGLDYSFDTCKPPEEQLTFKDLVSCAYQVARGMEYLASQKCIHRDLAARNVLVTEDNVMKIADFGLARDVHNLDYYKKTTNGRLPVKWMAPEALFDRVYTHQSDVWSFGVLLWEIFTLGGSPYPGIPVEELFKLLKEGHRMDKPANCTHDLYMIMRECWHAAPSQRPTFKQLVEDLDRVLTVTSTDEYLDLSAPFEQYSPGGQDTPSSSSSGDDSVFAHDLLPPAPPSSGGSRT
T5 sequence (P22455 22-802): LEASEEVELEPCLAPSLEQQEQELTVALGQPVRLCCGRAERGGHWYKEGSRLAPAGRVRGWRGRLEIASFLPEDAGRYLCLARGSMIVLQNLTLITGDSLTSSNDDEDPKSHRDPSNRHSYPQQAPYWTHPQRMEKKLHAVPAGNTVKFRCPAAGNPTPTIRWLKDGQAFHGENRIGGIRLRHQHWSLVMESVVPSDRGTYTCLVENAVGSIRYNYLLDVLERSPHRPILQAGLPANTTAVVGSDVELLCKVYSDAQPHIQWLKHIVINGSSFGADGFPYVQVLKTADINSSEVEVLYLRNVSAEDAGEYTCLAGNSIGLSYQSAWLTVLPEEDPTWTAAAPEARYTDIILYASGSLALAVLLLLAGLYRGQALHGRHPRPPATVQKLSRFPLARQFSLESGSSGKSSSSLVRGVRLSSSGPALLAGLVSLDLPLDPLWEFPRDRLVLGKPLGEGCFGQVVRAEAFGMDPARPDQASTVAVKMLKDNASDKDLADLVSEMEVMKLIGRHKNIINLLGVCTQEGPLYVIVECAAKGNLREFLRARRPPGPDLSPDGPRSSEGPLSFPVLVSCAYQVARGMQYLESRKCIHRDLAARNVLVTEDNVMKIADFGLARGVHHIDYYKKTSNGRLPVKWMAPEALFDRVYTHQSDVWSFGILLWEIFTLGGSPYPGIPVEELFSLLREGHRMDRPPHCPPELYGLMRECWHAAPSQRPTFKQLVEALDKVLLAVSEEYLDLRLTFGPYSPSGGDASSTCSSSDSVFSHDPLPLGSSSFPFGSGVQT
T3 sequence (P21802 22-821): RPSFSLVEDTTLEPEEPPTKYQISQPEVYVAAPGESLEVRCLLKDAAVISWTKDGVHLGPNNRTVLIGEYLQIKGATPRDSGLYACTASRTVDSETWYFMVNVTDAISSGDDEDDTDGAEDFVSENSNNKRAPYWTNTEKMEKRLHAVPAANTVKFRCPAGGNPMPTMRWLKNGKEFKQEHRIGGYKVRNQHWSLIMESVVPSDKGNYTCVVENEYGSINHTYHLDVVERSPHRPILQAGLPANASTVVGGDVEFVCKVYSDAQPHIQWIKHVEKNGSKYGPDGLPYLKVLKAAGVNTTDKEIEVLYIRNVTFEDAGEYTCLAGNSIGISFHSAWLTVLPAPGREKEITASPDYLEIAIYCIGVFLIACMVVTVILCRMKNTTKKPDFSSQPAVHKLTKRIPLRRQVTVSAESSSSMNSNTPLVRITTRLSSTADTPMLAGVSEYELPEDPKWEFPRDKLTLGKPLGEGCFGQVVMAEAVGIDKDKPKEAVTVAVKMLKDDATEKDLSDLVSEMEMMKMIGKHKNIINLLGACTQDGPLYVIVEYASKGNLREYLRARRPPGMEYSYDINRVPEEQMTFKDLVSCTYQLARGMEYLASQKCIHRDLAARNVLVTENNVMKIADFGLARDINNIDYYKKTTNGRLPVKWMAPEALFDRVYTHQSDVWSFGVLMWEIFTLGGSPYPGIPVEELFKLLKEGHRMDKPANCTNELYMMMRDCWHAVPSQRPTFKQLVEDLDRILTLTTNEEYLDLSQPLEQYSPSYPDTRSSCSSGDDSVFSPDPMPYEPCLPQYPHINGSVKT
T2 sequence (P11362 22-822): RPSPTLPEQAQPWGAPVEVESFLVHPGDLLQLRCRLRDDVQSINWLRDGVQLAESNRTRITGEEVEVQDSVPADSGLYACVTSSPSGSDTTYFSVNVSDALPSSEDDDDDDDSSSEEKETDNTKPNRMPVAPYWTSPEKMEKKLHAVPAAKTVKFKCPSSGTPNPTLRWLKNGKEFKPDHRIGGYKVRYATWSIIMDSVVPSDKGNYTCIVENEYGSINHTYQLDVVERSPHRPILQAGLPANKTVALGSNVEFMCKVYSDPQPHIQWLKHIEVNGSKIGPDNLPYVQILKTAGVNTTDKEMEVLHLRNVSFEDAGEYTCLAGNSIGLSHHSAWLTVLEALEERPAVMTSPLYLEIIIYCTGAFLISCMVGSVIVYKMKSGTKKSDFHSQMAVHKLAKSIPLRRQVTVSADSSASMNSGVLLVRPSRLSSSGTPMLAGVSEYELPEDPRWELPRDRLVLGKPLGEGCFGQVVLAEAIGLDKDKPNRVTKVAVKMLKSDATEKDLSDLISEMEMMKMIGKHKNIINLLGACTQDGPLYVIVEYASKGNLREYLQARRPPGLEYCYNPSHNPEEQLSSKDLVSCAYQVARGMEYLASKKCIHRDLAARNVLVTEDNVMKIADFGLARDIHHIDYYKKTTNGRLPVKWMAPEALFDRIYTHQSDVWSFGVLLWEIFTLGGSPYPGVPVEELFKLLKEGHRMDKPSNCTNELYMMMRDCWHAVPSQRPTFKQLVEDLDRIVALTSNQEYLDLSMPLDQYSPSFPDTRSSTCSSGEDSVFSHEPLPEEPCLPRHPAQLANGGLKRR
T4 sequence (P35968 20-1356): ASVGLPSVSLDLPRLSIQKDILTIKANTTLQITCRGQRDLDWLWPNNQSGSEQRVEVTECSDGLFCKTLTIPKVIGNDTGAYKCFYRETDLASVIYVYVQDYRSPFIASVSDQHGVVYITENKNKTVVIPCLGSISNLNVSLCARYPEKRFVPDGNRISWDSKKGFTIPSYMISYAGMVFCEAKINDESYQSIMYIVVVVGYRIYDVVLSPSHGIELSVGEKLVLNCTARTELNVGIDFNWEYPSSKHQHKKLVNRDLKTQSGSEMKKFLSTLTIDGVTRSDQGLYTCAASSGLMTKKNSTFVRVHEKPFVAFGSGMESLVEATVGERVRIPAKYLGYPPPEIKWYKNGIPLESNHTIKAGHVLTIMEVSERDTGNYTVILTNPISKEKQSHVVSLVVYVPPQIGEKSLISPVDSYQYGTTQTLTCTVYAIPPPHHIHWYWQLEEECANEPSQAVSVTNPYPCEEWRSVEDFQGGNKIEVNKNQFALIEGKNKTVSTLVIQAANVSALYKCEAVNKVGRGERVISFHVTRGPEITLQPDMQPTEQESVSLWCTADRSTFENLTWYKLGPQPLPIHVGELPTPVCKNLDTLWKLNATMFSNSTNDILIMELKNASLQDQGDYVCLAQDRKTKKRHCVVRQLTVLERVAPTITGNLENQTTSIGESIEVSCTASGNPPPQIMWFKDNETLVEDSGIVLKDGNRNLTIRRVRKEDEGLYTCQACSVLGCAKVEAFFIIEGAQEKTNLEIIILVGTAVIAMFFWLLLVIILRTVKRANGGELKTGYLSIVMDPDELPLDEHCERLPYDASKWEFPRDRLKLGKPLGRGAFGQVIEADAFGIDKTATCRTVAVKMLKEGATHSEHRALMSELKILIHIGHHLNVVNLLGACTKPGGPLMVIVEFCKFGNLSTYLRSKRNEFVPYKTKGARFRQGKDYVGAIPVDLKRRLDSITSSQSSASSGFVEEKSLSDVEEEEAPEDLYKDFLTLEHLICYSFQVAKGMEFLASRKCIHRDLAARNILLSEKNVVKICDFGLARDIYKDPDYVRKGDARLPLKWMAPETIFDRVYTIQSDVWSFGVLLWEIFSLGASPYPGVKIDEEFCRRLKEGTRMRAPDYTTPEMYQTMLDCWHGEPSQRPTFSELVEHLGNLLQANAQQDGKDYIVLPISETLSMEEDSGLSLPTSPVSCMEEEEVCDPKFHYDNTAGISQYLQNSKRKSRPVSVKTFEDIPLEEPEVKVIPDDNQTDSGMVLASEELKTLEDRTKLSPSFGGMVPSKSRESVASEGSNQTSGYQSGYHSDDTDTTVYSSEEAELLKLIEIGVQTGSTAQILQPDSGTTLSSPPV

Take `COc1cc(OC)cc(/C(=C\C#N)c2ccc3ncn(-c4cnn(C)c4)c(=O)c3c2)c1` [Compound 49]: the melting point was 217 °C. The Kd at FGFR3 is 7.94e-07 M. Further, on FGFR1, the Kd was 2e-06 M. Besides, the Kd on FGFR2 was 3.98e-07 M. The Kd at VEGFR2 is greater than 3.16e-06 M. Moreover, at FGFR4, the Kd is greater than 3.16e-06 M.
The compound `COc1cc(OC)cc(N(CCCO)c2ccc3ncn(C4CCNCC4)c(=O)c3c2)c1` [Compound 55] displayed a melting point of 167 °C. Moreover, the Kd at FGFR3 is 2.51e-06 M. Further, the Kd at FGFR1 is greater than 3.16e-06 M. Also, at FGFR2, the Kd was 2.51e-06 M. On VEGFR2, the Kd was greater than 3.16e-06 M. In addition, on FGFR4, the Kd was greater than 3.16e-06 M.
`COc1cc(OC)c(F)c(N(Cc2nccn2S(=O)(=O)N(C)C)c2ccc3ncn(-c4cccnc4)c(=O)c3c2)c1F` [Compound 35]: the melting point worked out at 128 °C. The Kd at FGFR3 was 3.98e-08 M. At FGFR1, this compound gave a Kd of 5.01e-08 M. In addition, the Kd on FGFR2 was 1.58e-08 M. At VEGFR2, the Kd was 1.26e-06 M. On FGFR4, the Kd was 1.26e-07 M.
For the compound `COc1cc(OC)c(F)c(N(CCO)c2ccc3ncn(-c4cccnc4)c(=O)c3c2)c1` [Compound 30], the melting point was found to be 186 °C. In addition, the Kd at FGFR3 was 6.31e-08 M. In addition, the Kd on FGFR1 was 2.51e-07 M. In addition, the Kd at FGFR2 was 3.98e-08 M. For the same compound, the Kd on VEGFR2 is greater than 3.16e-06 M. At FGFR4, the Kd is 5.01e-07 M.
Take `CNCCN(c1cc(OC)cc(OC)c1)c1ccc2ncn(C3CCOCC3)c(=O)c2c1` [Compound 71]: the melting point was found to be 135 °C. The Kd on FGFR3 was 1.26e-06 M. For the same compound, the Kd on FGFR1 is 6.31e-07 M. In addition, the Kd on FGFR2 is 3.98e-07 M. Moreover, the Kd at VEGFR2 is greater than 3.16e-06 M. Besides, the Kd on FGFR4 was greater than 3.16e-06 M.
Compound `COc1cc(OC)c(F)c(N(Cc2ncc[nH]2)c2ccc3ncn(C4CCNCC4)c(=O)c3c2)c1F` [Compound 43] yielded a melting point of 223 °C. In addition, the Kd at FGFR3 was 2e-08 M. Moreover, the Kd at FGFR1 is 1.58e-08 M. Besides, the Kd on FGFR2 was 7.94e-09 M. The Kd on VEGFR2 is greater than 3.16e-06 M. For the same compound, the Kd at FGFR4 was 5.01e-08 M.
In turn, `COc1cc(OC)c(F)c(N(CCO)c2ccc3ncn(-c4cncnc4)c(=O)c3c2)c1` [Compound 74] had a melting point of 200 °C. Further, the Kd on FGFR3 was 3.98e-07 M. Also, the Kd on FGFR1 was 7.94e-07 M. Also, the Kd on FGFR2 is 1.26e-07 M. For the same compound, on VEGFR2, the Kd is greater than 3.16e-06 M. Besides, on FGFR4, the Kd was 2e-06 M.
`COc1cc(OC)c(F)c(N(Cc2nccn2S(=O)(=O)N(C)C)c2ccc3ncn(-c4cccnc4)c(=O)c3c2)c1` [Compound 36] returned a melting point of 108 °C. The Kd at FGFR3 is 2.51e-07 M. Also, the Kd at FGFR1 is 1.58e-07 M. Besides, the Kd on FGFR2 is 1e-07 M. In addition, on VEGFR2, the Kd was greater than 3.16e-06 M. Moreover, the Kd at FGFR4 is 1.26e-06 M.
Regarding `COc1cc(OC)cc(N(CCCNC(C)C)c2ccc3ncn(C4CCOCC4)c(=O)c3c2)c1` [Compound 73], the melting point stood at 240 °C. The Kd at FGFR3 was 1.58e-07 M. Also, on FGFR1, the Kd was 6.31e-08 M. Further, at FGFR2, the Kd is 5.01e-08 M. Further, the Kd at VEGFR2 is greater than 3.16e-06 M. The FGFR4_pKd on FGFR4 was 5.9.
`COc1cc(OC)cc(N(Cc2ncc[nH]2)c2ccc3ncn(C4CCNCC4)c(=O)c3c2)c1` [Compound 44] had a melting point of 220 °C. Also, at FGFR3, the Kd is 3.98e-07 M. Also, on FGFR1, the Kd was 3.98e-07 M. On FGFR2, the Kd is 1.58e-07 M. Also, the Kd at VEGFR2 is greater than 3.16e-06 M. Further, at FGFR4, the Kd was greater than 3.16e-06 M.
`CNCCN(c1ccc2ncn(C3CCOCC3)c(=O)c2c1)c1cc(OC)cc(OC)c1F` [Compound 70] had a melting point of 178 °C. Moreover, at FGFR3, the Kd is 7.94e-08 M. At FGFR1, this compound showed a Kd of 3.16e-08 M. The Kd at FGFR2 is 3.98e-08 M. In addition, the Kd at VEGFR2 was greater than 3.16e-06 M. Besides, the Kd on FGFR4 was 1e-07 M.
With `CNCCN(c1ccc2ncn(C3CCNCC3)c(=O)c2c1)c1cc(OC)cc(OC)c1F` [Compound 58], the melting point came to 176 °C. Besides, at FGFR3, the Kd was 6.31e-07 M. The Kd on FGFR1 was 3.16e-07 M. For the same compound, the Kd on FGFR2 was 3.98e-07 M. Besides, on VEGFR2, the Kd is greater than 3.16e-06 M. At FGFR4, the Kd was 2e-06 M.
For `COc1cc(OC)c(F)c(N(CCO)c2ccc3ncn(C4CCOCC4)c(=O)c3c2)c1` [Compound 63], the melting point was determined as 191 °C. For the same compound, the Kd at FGFR3 was 1.26e-07 M. The compound further had a Kd on FGFR1 of 3.98e-07 M. The Kd at FGFR2 is 6.31e-08 M. In addition, the Kd on VEGFR2 is greater than 3.16e-06 M. Also, at FGFR4, the Kd is 1.58e-06 M.
Turning to `COc1cc(OC)c(F)c(N(Cc2nccn2S(=O)(=O)N(C)C)c2ccc3ncn(C4CCOCC4)c(=O)c3c2)c1` [Compound 67], the melting point turned out to be 189 °C. Further, the Kd on FGFR3 is 7.94e-07 M. Also, the Kd at FGFR1 is 3.16e-07 M. On FGFR2, the Kd is 2.51e-07 M. In addition, at VEGFR2, the Kd was greater than 3.16e-06 M. The Kd at FGFR4 was greater than 3.16e-06 M.
For the compound `COc1cc(OC)c(F)c(N(CCO)c2ccc3ncn(-c4ccncc4)c(=O)c3c2)c1` [Compound 38], the melting point came out at 209 °C. In addition, the Kd at FGFR3 is 3.16e-08 M. The same compound showed a Kd on FGFR1 of 1e-07 M. For the same compound, the Kd at FGFR2 is 2e-08 M. The Kd at VEGFR2 is greater than 3.16e-06 M. For the same compound, the Kd at FGFR4 was 1.58e-07 M.
Regarding `COc1cc(OC)c(F)c(N(CCNC(C)C)c2ccc3ncn(-c4cccnc4)c(=O)c3c2)c1` [Compound 33], the melting point was 133 °C. Also, the Kd on FGFR3 is 7.94e-09 M. This compound also had a Kd on FGFR1 of 5.01e-09 M. Besides, on FGFR2, the Kd was 1.58e-08 M. In addition, at VEGFR2, the Kd is 1.58e-06 M. On FGFR4, the Kd was 2.51e-08 M.
In turn, `COc1cc(OC)c(F)c(N(CCCO)c2ccc3ncn(C4CCNCC4)c(=O)c3c2)c1F` [Compound 53] showed a melting point of 184 °C. Besides, the Kd on FGFR3 was 6.31e-08 M. The compound also showed a Kd at FGFR1 of 5.01e-08 M. The Kd on FGFR2 was 3.16e-08 M. Also, the Kd on VEGFR2 is greater than 3.16e-06 M. Also, the Kd on FGFR4 is 2e-07 M.
With `COc1cc(OC)c(F)c(N(CCCO)c2ccc3ncn(C4CCNCC4)c(=O)c3c2)c1` [Compound 54], the melting point was 167 °C. The Kd on FGFR3 is 6.31e-07 M. On FGFR1, this compound gave a Kd of 7.94e-07 M. For the same compound, the Kd at FGFR2 was 3.16e-07 M. Also, the Kd at VEGFR2 was greater than 3.16e-06 M. Also, the Kd on FGFR4 was greater than 3.16e-06 M.
As to `COc1cc(OC)cc(N(CCNC(C)C)c2ccc3ncn(-c4cccnc4)c(=O)c3c2)c1` [Compound 34], the melting point was determined as 136 °C. For the same compound, the Kd on FGFR3 is 1.26e-07 M. Further, the Kd at FGFR1 is 6.31e-08 M. Further, at FGFR2, the Kd is 5.01e-08 M. Besides, the Kd on VEGFR2 is greater than 3.16e-06 M. In addition, the Kd on FGFR4 is 6.31e-07 M.

As a reminder, the melting point is the temperature of the solid-liquid transition.
